Measured values taken from US20200191798A1, “DOSE DETERMINATION FOR IMMUNOTHERAPEUTIC AGENTS” (BIONTECH RNA PHARMACEUTICALS GMBH, priority 2016, published 2020).

Test system: cytokines in the blood
Test: Plasma cytokines after intravenous infusion of TLR-7 agonists in cynomolgus monkeys
Assay type: in vivo, cynomolgus monkey
Conditions: thirty minute i.v. infusion
Description: The objective of the following study was to observe the effect of the in vivo administration of different amounts of small molecule agonists of TLR-7, N-(4-(4-amino-2-(2-methoxyethyl)-1H-imidazo[4,5-c]quinolin-1-yl)butyl)-N-(tetrahydro-2H-pyran-4-yl)acetamide (SM1) and N-(4-(4-amino-2-ethyl-1H-imidazo[4,5-c]quinolin-1-yl)butyl)-N-(1,1-dioxidothietan-3-yl)acetamide (SM3), on expression of various cytokines in the blood in a cynomolgus monkey model. The various cytokines whose expression was determined include interferon alpha, interleukin 1 receptor antagonist, interleukins 4, 6, 8, 10, 12, 15, 18, monocyte chemoattractant protein 1, granulocyte-colony stimulating factor, macrophage inflammatory protein 1 beta, tumor necrosis factor alpha, and vascular endothelial growth factor.
A defined single dose of one of the agonist compounds was administered intravenously to cynomolgus monkeys in a thirty minute infusion. […]
Cytokines levels were determined using an interferon alpha Elisa kit (e.g., VeriKine™ Cynomolgus/Rhesus IFNα ELISA Kit) and a Luminex® non-human primate cytokine/chemokine kit (e.g., Milliplex Non-Human Primate Cytokine/Chemokine Magnetic Premixed 23 Plex Panel), in accordance to the manufacturers' instructions. […]

Structure (SMILES)	cytokine levels in plasma (FIGS. 11a-11m) (male cynomolgus monkeys, 300 μg/kg, 1, 3 and 10 mg/kg)	cytokine levels in plasma (FIGS. 10a-10kk) (male and female cynomolgus monkeys, 30, 100 or 300 μg/kg, then at 14 days 1, 3 or 10 mg/kg)
CCc1nc2c(N)nc3ccccc3c2n1CCCCN(C(C)=O)C1CS(=O)(=O)C1 [SM3, N-(4-(4-amino-2-ethyl-1H-imidazo[4,5-c]quinolin-1-yl)butyl)-N-(1,1-dioxidothietan-3-yl)acetamide]	production of various cytokines in a highly individual manner	–
COCCc1nc2c(N)nc3ccccc3c2n1CCCCN(C(C)=O)C1CCOCC1 [SM1, N-(4-(4-amino-2-(2-methoxyethyl)-1H-imidazo[4,5-c]quinolin-1-yl)butyl)-N-(tetrahydro-2H-pyran-4-yl)acetamide]	–	production of various cytokines in a highly individual manner
